# Data: US10543189B2, “2-acetylnaphtho[2,3-b]furan -4,9-dione for use on treating cancer” (Boston Biomedical, Inc., priority 2013, dated 2020)
# Test: Particle size distribution of milled/micronized Compound 1 crystals
# Format: physicochemical
# Settings: for Particle Size D50: median size; for Particle Size D90: size for which 90% of particles are equal or smaller
# Description: For example, Compound 1 crystals were milled (The Retsch Ultra centrifugal Mill ZM 200; Single pass, at 18,000 rpm using 0.25 mm screen) to a median particle size of about 20 micron. Table 3 presents the resultant distribution of particle sizes (Malvern 2000 with the Hydro 2000S wet accessory). The columns present the maximum size of particles in the cumulative percent total presented in the subscript at the header of the column. For example, the column D90 presents the size for which 90% of the particles have an equal or lesser size. The column D50 represents the median size—half of the particles have a greater size, and half of the particles have an equal or lesser size.
# For example, Compound 1 crystals were micronized using a jet milling method (4″ Jet Mill, Venturi pressure=40, Mill pressure=100, Feed rate=1304 g/hour) to a median particle size of about 2 micron, as presented in Table 4. Particle size analysis was performed using a dry particle method (Sympatec Helos/KF Particle Size Analyzer).
Structure (SMILES),Particle Size D10 [microns],Particle Size D50 [microns],Particle Size D90 [microns]
"CC(=O)c1cc2c(o1)C(=O)c1ccccc1C2=O [Sample A, 2-acetylnaphtho[2,3-b]furan-4,9-dione]",0.53,2.07,4.63
"CC(=O)c1cc2c(o1)C(=O)c1ccccc1C2=O [Sample B, 2-acetylnaphtho[2,3-b]furan-4,9-dione]",2.3,20.2,48.9
